Values after ≈ are worked out from the molar mass of the structure shown.
What was measured:
[1] = Selectivity ratio of cytotoxicity against human WI38 cells to MIC for Acinetobacter baumannii ATCC 17978; assay type: toxicity, cell-based
[2] = Selectivity ratio of cytotoxicity against human WI38 cells to MIC for methicillin sensitive Staphylococcus aureus NCTC 6571; assay type: toxicity, cell-based
[3] = Selectivity ratio of cytotoxicity against human WI38 cells to MIC for multidrug-resistant Acinetobacter baumannii AYE; assay type: toxicity, cell-based
Klebsiella pneumoniae [4] = assay: Antimicrobial activity against multidrug-resistant Klebsiella pneumoniae NCTC 13368 by microdilution broth method; assay type: functional
Staphylococcus aureus [5] = assay: Antibacterial activity against methicillin resistant Staphylococcus aureus NCTC 13616 by microdilution broth method; assay type: functional
DNA [6] = assay: Stabilization of 5'-FAM-TAT-ATA-TAG-ATA-TTT-TTT-TAT-CTA-TAT-ATA-3'-TAMRA DNA (unknown origin) assessed as reduction in change in melting temperature at 1:1 to 5:1 ligand to DNA ratio measured after 3 hrs by FRET-based assay relative to control; assay type: ADME, nucleic-acid assay
[7] = Selectivity ratio of cytotoxicity against human WI38 cells to MIC for multidrug-resistant Pseudomonas aeruginosa NCTC 13437; assay type: toxicity, cell-based
Klebsiella pneumoniae [8] = assay: Antimicrobial activity against Klebsiella pneumoniae M6 by microdilution broth method; assay type: functional
[9] = Selectivity ratio of cytotoxicity against human WI38 cells to MIC for Klebsiella pneumoniae M6; assay type: toxicity, cell-based
[10] = Cytotoxicity against human WI38 cells assessed as cell viability at 20 uM measured after 24 hrs by MTT assay relative to control; assay type: cell-based, WI-38; conditions: read-out: Activity
Acinetobacter baumannii [11] = assay: Antimicrobial activity against multidrug-resistant Acinetobacter baumannii AYE by microdilution broth method; assay type: functional
[12] = Selectivity ratio of cytotoxicity against human WI38 cells to MIC for vancomycin resistant Enterococcus faecalis NCTC 12201; assay type: toxicity, cell-based
Staphylococcus aureus [13] = assay: Antibacterial activity against methicillin sensitive Staphylococcus aureus NCTC 6571 by microdilution broth method; assay type: functional
[14] = Selectivity ratio of cytotoxicity against human WI38 cells to MIC for vancomycin sensitive Enterococcus faecalis NCTC 775; assay type: toxicity, cell-based
[15] = Selectivity ratio of cytotoxicity against human WI38 cells to MIC for vancomycin resistant Enterococcus faecium NCTC 12204; assay type: toxicity, cell-based
DNA [16] = assay: Stabilization of 5'-FAM-TAT-AGA-TAT-AGA-TAT-TTT-ATA-TCT-ATA-TCT-ATA-3'-TAMRA DNA (unknown origin) assessed as reduction in change in melting temperature at 1:1 to 5:1 ligand to DNA ratio measured after 3 hrs by FRET-based assay relative to control; assay type: ADME, nucleic-acid assay
Enterococcus faecalis [17] = assay: Antibacterial activity against vancomycin sensitive Enterococcus faecalis NCTC 775 by microdilution broth method; assay type: functional
Pseudomonas aeruginosa [18] = assay: Antimicrobial activity against multidrug-resistant Pseudomonas aeruginosa NCTC 13437 by microdilution broth method; assay type: functional
Staphylococcus aureus [19] = assay: Antibacterial activity against methicillin resistant Staphylococcus aureus NCTC 13277 by microdilution broth method; assay type: functional
[20] = Selectivity ratio of cytotoxicity against human WI38 cells to MIC for methicillin resistant Staphylococcus aureus NCTC 13277; assay type: toxicity, cell-based
[21] = Selectivity ratio of cytotoxicity against human WI38 cells to MIC for multidrug-resistant Klebsiella pneumoniae NCTC 13368; assay type: toxicity, cell-based
Pseudomonas aeruginosa [22] = assay: Antimicrobial activity against Pseudomonas aeruginosa PAO1 by microdilution broth method; assay type: functional
[23] = Selectivity ratio of cytotoxicity against human WI38 cells to MIC for methicillin resistant Staphylococcus aureus NCTC 13616; assay type: toxicity, cell-based
Acinetobacter baumannii [24] = assay: Antimicrobial activity against Acinetobacter baumannii ATCC 17978 by microdilution broth method; assay type: functional
Enterococcus faecium = assay: Antibacterial activity against vancomycin resistant Enterococcus faecium NCTC 12204 by microdilution broth method; assay type: functional
Enterococcus faecalis [25] = assay: Antibacterial activity against vancomycin resistant Enterococcus faecalis NCTC 12201 by microdilution broth method; assay type: functional
[26] = Selectivity ratio of cytotoxicity against human WI38 cells to MIC for Pseudomonas aeruginosa PAO1; assay type: toxicity, cell-based

SMILES	selectivity ratio [1]	selectivity ratio [2]	selectivity ratio [3]	MIC (Klebsiella pneumoniae [4]) [µg/mL]	MIC (Staphylococcus aureus [5]) [µg/mL]	fold change (FC) (DNA [6])	selectivity ratio [7]	MIC (Klebsiella pneumoniae [8]) [µg/mL]	selectivity ratio [9]	viability at 24 h, 20 µM [10] [%]	MIC (Acinetobacter baumannii [11]) [µg/mL]	MIC (Staphylococcus aureus [13]) [µg/mL]	fold change (FC) (DNA [16])	MIC (Enterococcus faecalis [17]) [µg/mL]	MIC (Pseudomonas aeruginosa [18]) [µg/mL]	MIC (Staphylococcus aureus [19]) [µg/mL]	MIC (Pseudomonas aeruginosa [22]) [µg/mL]	MIC (Acinetobacter baumannii [24]) [µg/mL]	MIC (Enterococcus faecium) [µg/mL]	MIC (Enterococcus faecalis [25]) [µg/mL]	further results
CCN(CC)C(=O)c1cc(-c2ccc(NC(=O)c3cc(NC(=O)CCCOc4cc5c(cc4OC)C(=O)N4CCC[C@H]4C=N5)cn3C)cc2)cn1C	10	100	10	> 128	1 (≈ 1.41 µM)	3 to 4	10	> 128	10	> 85	32 (≈ 45.2 µM)	0.25 to 0.5 (≈ 0.353 to 0.706 µM)	3 to 4	0.5 (≈ 0.706 µM)	> 128	1 (≈ 1.41 µM)	> 128	64 (≈ 90.4 µM)	0.25 (≈ 0.353 µM)	0.25 to 0.5 (≈ 0.353 to 0.706 µM)	selectivity ratio [12]: 100; selectivity ratio [14]: 100; selectivity ratio [15]: 100; selectivity ratio [20]: 100; selectivity ratio [21]: 10; selectivity ratio [23]: 100; selectivity ratio [26]: 10
COc1cc2c(cc1OCCCC(=O)Nc1cc(C(=O)Nc3ccc(-c4cc(C(=O)N(C)C)n(C)c4)cc3)n(C)c1)N=C[C@@H]1CCCN1C2=O	10	100	10	8 (≈ 11.8 µM)	≤ 0.125	3 to 4	10	2 (≈ 2.94 µM)	10	> 85	4 (≈ 5.88 µM)	≤ 0.125	3 to 4	≤ 0.125	> 128	≤ 0.125	128 (≈ 188 µM)	4 (≈ 5.88 µM)	≤ 0.125	≤ 0.125	selectivity ratio [12]: 100; selectivity ratio [14]: 100; selectivity ratio [15]: 100; selectivity ratio [20]: 100; selectivity ratio [21]: 10; selectivity ratio [23]: 100; selectivity ratio [26]: 10
COc1cc2c(cc1OCCCC(=O)Nc1cc(C(=O)Nc3ccc(-c4cc(C(=O)N5CCSCC5)n(C)c4)cc3)n(C)c1)N=C[C@@H]1CCCN1C2=O	10	100	10	> 32	≤ 0.03	3 to 4	10	4 (≈ 5.42 µM)	10	> 85	2 (≈ 2.71 µM)	≤ 0.03	3 to 4	≤ 0.03	> 32	0.06 (≈ 0.0813 µM)	> 32	2 (≈ 2.71 µM)	≤ 0.03	≤ 0.03	selectivity ratio [12]: 100; selectivity ratio [14]: 100; selectivity ratio [15]: 100; selectivity ratio [20]: 100; selectivity ratio [21]: 10; selectivity ratio [23]: 100; selectivity ratio [26]: 10
COC(=O)c1cc(NC(=O)c2cc(NC(=O)CCCOc3cc4c(cc3OC)C(=O)N3CCC[C@H]3C=N4)cn2C)cn1C	–	–	–	> 128	1 (≈ 1.69 µM)	3 to 4	–	> 128	–	35	128 (≈ 217 µM)	0.5 (≈ 0.847 µM)	3 to 4	1 (≈ 1.69 µM)	> 128	2 (≈ 3.39 µM)	128 (≈ 217 µM)	128 (≈ 217 µM)	0.5 (≈ 0.847 µM)	0.5 (≈ 0.847 µM)	–
